Reference: patent US10517867B2, “Posaconazole derivative, pharmaceutical composition and use thereof” (priority 2016, dated 2019)

What was measured:
[1] = In vitro metabolic stability in human intestine S9; format: in vitro ADME; conditions: human, 37° C., 10 μM compound, 1 mg/mL S9, NADPH regeneration system, read-out: Human intestine S9 T1/2
Procedure: (§1) This example detects the metabolic stability of the compounds of the present disclosure in human (rat) plasma and intestinal S9 in vitro. In a human (rat) plasma reaction system, 990 μl of human (rat) plasma was taken and incubated at 37° C. for 5 minutes, and 10 μl of the compound mother liquor was used to initiate the reaction. In the human (rat) intestinal S9 stability experiment, in the order shown in Table 2 below, the samples were added and incubated in a 37° C. water bath to initiate the reaction, each sample performed in triplicates. Respectively, at 1 minute, 2 minutes, 5 minutes, 15 minutes, 30 minutes after the reaction began, 100 μL of each was taken and added to a centrifuge tube containing 400 μL of 0° C. precooled internal standard working solution. The reaction was terminated, vortexed and mixed for 1 minute, centrifuged at 10000×g for 10 minutes in a 4° C. precooled high-speed centrifuge, and the supernatant was detected with HPLC. The test results were used to calculate metabolic half-life using WinNonlin (version 6.2 Pharsight, Mountain View, Calif.) with a non-compartmental model.
(§2) Compound stock solution concentration: 1 mM
(§3) Reaction matrix: human (rat) plasma, intestinal S9 purchased from Research Institute for Liver Diseases (Shanghai) Co., Ltd.

[2] = In vitro metabolic stability in human plasma; format: in vitro ADME; conditions: human, plasma, 37° C., 10 μM compound, read-out: Human plasma T1/2
Procedure: as §1, §2, §3

[3] = In vitro metabolic stability in rat plasma; format: in vitro ADME; conditions: rat, plasma, 37° C., 10 μM compound, read-out: Rat plasma T1/2
Procedure: as §1, §2, §3

[4] = In vitro metabolic stability in rat intestine S9; format: in vitro ADME; conditions: rat, 37° C., 10 μM compound, 1 mg/mL S9, NADPH regeneration system, read-out: Rat intestine S9 T1/2
Procedure: as §1, §2, §3

[5] = Determination of solubility in deionized water (HPLC, external standard); conditions: 25 °C, water, thermodynamic from solid
[6] = Solid stability test (stability chamber, HPLC total impurity); format: physicochemical
[7] = system: Candida albicans ATCC10231; assay: Systemic fungal infection in mice, intragastric administration; format: in vivo, ICR mice; conditions: Candida albicans, ATCC10231, po
Procedure: (§4) ICR mice, weighing 18-22 g, male, provided by Hubei Experimental Animal Center.
Prior to the experiment, a small amount of Candida albicans was picked from an SDA medium kept at 4° C. with an inoculation loop and inoculated into 1 ml YPD culture medium, cultured at 30° C. with 200 rpm shaking and activated for 16 hours, so that the fungus was in the late stage of exponential growth. Counted with a hemocytometer and the fungal solution concentration was adjusted to 1×10^3 to 5×10^3 CFU/ml with RPMI1640 medium. Monoclonal Candida albicans on SDA plate was picked up, inoculated into 1 ml YPD (Yeast Extract Peptone Dextrose Medium, the same below) culture medium, cultured at 35° C., 200 rpm for 16 hours until late exponential growth phase. Candida albicans was inoculated into fresh medium for culturing for 6 hours at 1%, centrifuged at 1000×g for 5 minutes, washed with physiological saline three times until the supernatant was colorless, counted with a hemocytometer, and the cell concentration was adjusted to 5×10^6 cells/ml. A tail vein injection of 0.1 ml/10 g caused a systemic fungal infection in mice. […] A total of 7 days of observations were performed. All dead mice were burned with ethanol.

[8] = system: Candida albicans ATCC10231; assay: Systemic fungal infection in mice, intravenous administration; format: in vivo, ICR mice
Procedure: as §4
Prior to the experiment, a small amount of Candida albicans was picked from an SDA (sacharomyces agar, the same below) medium kept at 4° C. with an inoculation loop and inoculated into 1 ml YPD (Yeast Extract Peptone Dextrose Medium) culture medium, cultured at 30° C. with 200 rpm shaking and activated for 16 hours, so that the fungus was in the late stage of exponential growth. Counted with a hemocytometer and the fungal solution concentration was adjusted to 1×10^3-5×10^3 CFU/ml with RPMI1640 medium (Roswell Park Memorial Institute 1640, the same below). Monoclonal Candida albicans on SDA plate was picked up, inoculated into 1 ml YPD (Yeast Extract Peptone Dextrose Medium, the same below) culture medium, cultured at 35° C., 200 rpm for 16 hours until late exponential growth phase. Candida albicans was inoculated into fresh medium for culturing for 6 hours at 1%, centrifuged at 1000×g for 5 minutes, washed with physiological saline three times until the supernatant was colorless, counted with a hemocytometer, and the cell concentration was adjusted to 5×10^6 cells/ml. A tail vein injection of 0.1 ml/10 g caused a systemic fungal infection in mice. […] A total of 7 days of observations were performed. All dead mice were burned with ethanol.

[9] = 24 h, read-out: survival rate of mice, day 1, 20 mg/kg intragastric once daily for 5 days, day 1
[10] = 48 h, read-out: survival rate of mice, day 2, 20 mg/kg intragastric once daily for 5 days, day 2
[11] = 72 h, read-out: survival rate of mice, day 3, 20 mg/kg intragastric once daily for 5 days, day 3
[12] = 96 h, read-out: survival rate of mice, day 4, 20 mg/kg intragastric once daily for 5 days, day 4
[13] = 120 h, read-out: survival rate of mice, day 5, 20 mg/kg intragastric once daily for 5 days, day 5
[14] = 144 h, read-out: survival rate of mice, day 6, 20 mg/kg intragastric once daily for 5 days, day 6
[15] = 168 h, read-out: survival rate of mice, day 7, 20 mg/kg intragastric once daily for 5 days, day 7

CC[C@@H]([C@H](C)O)n1ncn(-c2ccc(N3CCN(c4ccc(OC[C@@H]5CO[C@@](Cn6c[n+](C(C)OC(=O)N(C)c7ncccc7COC(=O)[C@@H](N)Cc7ccc(O)cc7)cn6)(c6ccc(F)cc6F)C5)cc4)CC3)cc2)c1=O (some centres unmarked) [ST0027]
half-life at 10 µM ([1]; intestinal S9): 45.9 ± 8.12 min
half-life at 10 µM [2]: 20.4 ± 3.65 min
half-life at 10 µM [3]: 15.9 ± 7.85 min
half-life at 10 µM ([4]; intestinal S9, pH 7.4): 39.5 ± 6.69 min
solubility at 30 min [5]: > 50 mg/mL
Total impurity increment in 30 days [6]: 0.75%

CC[C@@H](C(C)OC(=O)OC(C)OC(=O)CCCCCCOP(=O)([O-])[O-])n1ncn(-c2ccc(N3CCN(c4ccc(OC[C@@H]5CO[C@@](Cn6cncn6)(c6ccc(F)cc6F)C5)cc4)CC3)cc2)c1=O.[Na+].[Na+] (some centres unmarked) [ST0070]
half-life at 10 µM [1]: 20.2 ± 8.02 min
half-life at 10 µM [2]: 0.95 ± 0.31 min
half-life at 10 µM [3]: 1.12 ± 0.56 min
responders at 20 mg/kg [7, 9]: 100%
responders at 20 mg/kg [7, 10]: 90%
responders at 20 mg/kg [7, 11]: 90%
responders at 20 mg/kg [7, 12]: 90%
responders at 20 mg/kg [7, 13]: 80%
responders at 20 mg/kg [7, 14]: 70%
responders at 20 mg/kg [7, 15]: 70%
half-life at 10 µM ([4]; pH 7.4): 17.6 ± 5.85 min
solubility at 30 min [5]: > 50 mg/mL
responders at 20 mg/kg ([8]; 24 h, read-out: survival rate of mice, day 1): 100%
responders at 20 mg/kg ([8]; 48 h, read-out: survival rate of mice, day 2): 90%
responders at 20 mg/kg ([8]; 72 h, read-out: survival rate of mice, day 3): 90%
responders at 20 mg/kg ([8]; 96 h, read-out: survival rate of mice, day 4): 90%
responders at 20 mg/kg ([8]; 120 h, read-out: survival rate of mice, day 5): 90%
responders at 20 mg/kg ([8]; 144 h, read-out: survival rate of mice, day 6): 90%
responders at 20 mg/kg ([8]; 168 h, read-out: survival rate of mice, day 7): 90%

CC[C@@H]([C@H](C)O)n1ncn(-c2ccc(N3CCN(c4ccc(OC[C@@H]5CO[C@@](Cn6c[n+](C(C)OC(=O)N(C)c7ncccc7COC(=O)[C@@H](N)CCCCN)cn6)(c6ccc(F)cc6F)C5)cc4)CC3)cc2)c1=O (some centres unmarked) [ST0024]
half-life at 10 µM ([1]; intestinal S9): 12.2 ± 5.9 min
half-life at 10 µM [2]: 1.57 ± 0.34 min
half-life at 10 µM [3]: 2.51 ± 0.69 min
responders at 20 mg/kg [7, 9]: 100%
responders at 20 mg/kg [7, 10]: 90%
responders at 20 mg/kg [7, 11]: 90%
responders at 20 mg/kg [7, 12]: 80%
responders at 20 mg/kg [7, 13]: 80%
responders at 20 mg/kg [7, 14]: 70%
responders at 20 mg/kg [7, 15]: 70%
half-life at 10 µM ([4]; intestinal S9, pH 7.4): 15.6 ± 5.96 min
solubility at 30 min [5]: > 50 mg/mL
Total impurity increment in 30 days [6]: 0.62%
